Measurements as given in US20110105564A1, “THIENYLPYRIDYLCARBOXAMIDES” (Bayer CropScience AG, priority 2005, published 2011).

Assay: logP determination by HPLC on a reverse-phase column (EEC Directive 79/831 Annex V.A8)
Type: physicochemical
Conditions: reverse-phase HPLC column (C 18); acidic range pH 2.3; 0.1% aqueous phosphoric acid and acetonitrile, linear gradient 10% to 90% acetonitrile; C 18 column; 43° C.
Protocol: The logP values given in the Tables and Preparation Examples above are determined in accordance with EEC Directive 79/831 Annex V.A8 by HPLC (High Performance Liquid Chromatography) on a reverse-phase column (C 18). Temperature: 43° C. The determination is carried out in the acidic range at pH 2.3 using the mobile phases 0.1% aqueous phosphoric acid and acetonitrile; linear gradient from 10% acetonitrile to 90% acetonitrile. Calibration is carried out using unbranched alkan-2-ones (having 3 to 16 carbon atoms), with known logP values (determination of the logP values by the retention times using linear interpolation between two successive alkanones).

Row | chromatographic logP | SMILES
1 | 0.87 | Nc1ccsc1-c1ccc(Br)cn1 [Example (III-1), 2-(5-bromopyridin-2-yl)thiophene-3-amine]
2 | 2.25 | O=C(Nc1ccsc1-c1ccc(Br)cn1)c1cccnc1Cl [Example 1, N-[2-(5-bromopyridin-2-yl)-3-thienyl]-2-chloronicotinamide]
3 | 2.43 | CC(C)(C)OC(=O)Nc1ccsc1I [Example (VI-1), tert-butyl (2-iodo-3-thienyl)carbamate]
4 | 3.27 | CC(C)(C)OC(=O)Nc1ccsc1-c1ccc(Br)cn1 [Example (III-a-1), tert-butyl[2-(5-bromopyridin-2-yl)-3-thienyl]carbamate]
